Some test systems named below: HOP-92 NSCLC; SK-MEL-28 melanoma; KM12 colon; A549 NSCLC; SK-MEL-5 melanoma; NCI-H23 lung; CCRF-CEM leukemia; SK-MEL-2 melanoma; HCT-15 colon; UACC-257 melanoma.
Assay in all cases: NCI tumour cell line growth inhibition, 48 h

The structures appear in SMILES notation. Where “and” joins values, the source holds several entries; their conditions need not be identical. Equal values may be shown once.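 Five concentrations, 48 hours, 96-well plates. At the GI50, growth is halved. TGI: total growth inhibition.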

In the case of `CCCCCCCCOC(=O)c1c(C)[nH]c(/C=C2\N=C(c3ccc[nH]3)C=C2OC)c1C`, the GI50 was 0.0456 µM in the experiment with HOP-92 NSCLC; 0.25 µM with SK-MEL-28 melanoma; 0.0355 µM in the experiment on KM12 colon; 0.118 µM in the experiment on A549 NSCLC; 0.0169 µM in the experiment with SK-MEL-5 melanoma; 0.0965 µM in the experiment on NCI-H23 lung. For the same molecule, the GI50 in the experiment with CCRF-CEM leukemia was under 0.0178 µM; with SK-MEL-2 melanoma it was 0.0279 µM; in the experiment on HCT-15 colon it was under 0.0163 µM; in the experiment with UACC-257 melanoma, 0.188 µM. In addition, the TGI came to 0.228 µM with HOP-92 NSCLC; 6.14 µM with SK-MEL-28 melanoma; 1.97 µM with KM12 colon; 13.3 µM in the experiment on A549 NSCLC; 0.0819 µM in the experiment on SK-MEL-5 melanoma; 2.2 µM in the experiment with NCI-H23 lung. Further, the TGI with CCRF-CEM leukemia is over 27.4 µM; with SK-MEL-2 melanoma it was 0.0952 µM; in the experiment on HCT-15 colon, 3.15 µM; in the experiment with UACC-257 melanoma it was 7.45 µM.

For the molecule `COc1ccc(C(=O)c2cc3c(N)c(C(=O)Nc4ccccc4)sc3nc2C)cc1`, the GI50 in the experiment on HOP-92 NSCLC is 86.3 µM; with KM12 colon, 0.539 µM; with A549 NSCLC, 0.638 µM; with SK-MEL-5 melanoma, 0.459 µM; with NCI-H23 lung it was 2.54 µM; in the experiment on CCRF-CEM leukemia, 0.852 µM. Moreover, the GI50 is 4.22 µM in the experiment with SK-MEL-2 melanoma, 0.426 µM with HCT-15 colon and 47.1 µM with UACC-257 melanoma. The TGI in the experiment with HOP-92 NSCLC was over 100 µM; with KM12 colon it was over 100 µM; in the experiment with A549 NSCLC, over 100 µM; in the experiment on SK-MEL-5 melanoma, 10.6 µM; in the experiment on NCI-H23 lung, over 100 µM; in the experiment on CCRF-CEM leukemia, over 100 µM. Besides, the TGI with SK-MEL-2 melanoma, in the experiment on HCT-15 colon and in the experiment on UACC-257 melanoma was over 100 µM throughout.

In the case of `CCCCCCCC(=O)OCCCC1[C@]2(C)CC[C@@]3(C)C([C@H](C)CCC=C(C)C)CC[C@]3(C)C2CC[C@]12OC2(C)C` (some centres undefined), the GI50 with HOP-92 NSCLC was 28.2 µM; in the experiment on SK-MEL-28 melanoma it was 42.4 µM; in the experiment with KM12 colon, 29.6 µM; in the experiment with A549 NSCLC, 32.4 µM; with SK-MEL-5 melanoma, 33.9 µM; in the experiment with NCI-H23 lung, 23.1 µM. The results for the GI50 with CCRF-CEM leukemia, with HCT-15 colon and with UACC-257 melanoma were 28.4 µM, 29.4 µM and 68.2 µM, respectively. Also, the TGI is over 100 µM in the experiment on HOP-92 NSCLC; over 100 µM in the experiment with SK-MEL-28 melanoma; 84.1 µM with KM12 colon; over 100 µM in the experiment on A549 NSCLC; over 100 µM with SK-MEL-5 melanoma; 61.7 µM in the experiment on NCI-H23 lung. For the same molecule, the TGI in the experiment with CCRF-CEM leukemia was 69.1 µM; with HCT-15 colon it was over 100 µM; with UACC-257 melanoma it was over 100 µM.

`Cc1nc2ccc(Br)cc2c(=O)n1-c1ccc(NC2OCC(O)C(O)C2O)cc1` (centres undefined): the GI50 in the experiment on HOP-92 NSCLC was 22.4 µM and > 100 µM; in the experiment with SK-MEL-28 melanoma, 26.2 µM and > 100 µM; in the experiment on KM12 colon, 26.3 µM and > 100 µM; in the experiment on CCRF-CEM leukemia it was 3.8 µM and 34.9 µM; in the experiment on SK-MEL-2 melanoma, 25.6 µM and > 100 µM; in the experiment with HCT-15 colon it was 19.7 µM and > 100 µM. Moreover, the GI50 in the experiment with UACC-257 melanoma was over 100 µM. Moreover, the TGI was 64.2 µM and > 100 µM with HOP-92 NSCLC; 66.9 µM and > 100 µM in the experiment on SK-MEL-28 melanoma; 68.4 µM and > 100 µM with KM12 colon; over 100 µM in the experiment with A549 NSCLC; over 100 µM with SK-MEL-5 melanoma; 38 µM and > 100 µM in the experiment with CCRF-CEM leukemia. For the same molecule, the TGI was 66.3 µM and > 100 µM with SK-MEL-2 melanoma; 43.6 µM and > 100 µM in the experiment on HCT-15 colon; over 100 µM in the experiment on UACC-257 melanoma.

Turning to `CCOC(=O)c1c(C)n(Cc2ccc(Cl)cc2Cl)c2c1cc1oc(=O)c(=O)n3cnc2c13`, the GI50 with HOP-92 NSCLC was 13.9 µM; with SK-MEL-28 melanoma, 14.2 µM; in the experiment with KM12 colon it was 11.6 µM; with A549 NSCLC, 9.71 µM; in the experiment on SK-MEL-5 melanoma, 18 µM; with CCRF-CEM leukemia it was 6.31 µM. For the same molecule, the GI50 with SK-MEL-2 melanoma was 22.5 µM; in the experiment on HCT-15 colon, 13.7 µM; in the experiment on UACC-257 melanoma, 9.51 µM. In addition, the TGI with HOP-92 NSCLC was 27.2 µM; in the experiment with SK-MEL-28 melanoma, 31.7 µM; with KM12 colon, 26 µM; in the experiment with A549 NSCLC it was 21.9 µM; with SK-MEL-5 melanoma it was 34.3 µM; with CCRF-CEM leukemia, 20.4 µM. The figures for the TGI with SK-MEL-2 melanoma, with HCT-15 colon and in the experiment with UACC-257 melanoma were 56.5 µM, 27.3 µM and 21.7 µM, respectively.

Regarding `Cc1cc(Nc2nc(C(=O)Nc3ccccc3)nc3ccccc23)n[nH]1`, the GI50 was 0.399 µM in the experiment with HOP-92 NSCLC; over 25 µM with SK-MEL-28 melanoma; 3.68 µM in the experiment on KM12 colon; 13.9 µM with A549 NSCLC; 22.5 µM in the experiment on SK-MEL-5 melanoma; 4 µM in the experiment on CCRF-CEM leukemia. Further, the values for the GI50 in the experiment with SK-MEL-2 melanoma, in the experiment with HCT-15 colon and in the experiment with UACC-257 melanoma were 3.57 µM, 1.39 µM and over 25 µM, respectively. In addition, the TGI in the experiment with HOP-92 NSCLC, with SK-MEL-28 melanoma, in the experiment with KM12 colon, with A549 NSCLC, in the experiment with SK-MEL-5 melanoma and in the experiment on CCRF-CEM leukemia was over 25 µM throughout. For the same molecule, the TGI in the experiment on SK-MEL-2 melanoma, in the experiment on HCT-15 colon and in the experiment on UACC-257 melanoma was over 25 µM throughout.

Turning to `CCOC(=O)CN(Cn1cncn1)Cn1cncn1`, the TGI was over 100 µM in the experiment with HOP-92 NSCLC; 37.1 µM in the experiment on SK-MEL-28 melanoma; 44.6 µM in the experiment on KM12 colon; over 100 µM in the experiment with A549 NSCLC; 53.7 µM in the experiment with SK-MEL-5 melanoma; over 100 µM in the experiment with CCRF-CEM leukemia. Further, the TGI is over 100 µM in the experiment on SK-MEL-2 melanoma, 47.2 µM in the experiment with HCT-15 colon and 33 µM with UACC-257 melanoma.

For the molecule `c1cc(-c2nnc(SSc3ncnc4nc[nH]c34)o2)ccn1`, the GI50 with HOP-92 NSCLC is 0.582 µM; with SK-MEL-28 melanoma, 43.7 µM; with KM12 colon, 2.61 µM; in the experiment with A549 NSCLC, 23 µM; with SK-MEL-5 melanoma, 3.46 µM; in the experiment on NCI-H23 lung, 2.73 µM. The values for the GI50 in the experiment with CCRF-CEM leukemia, in the experiment on HCT-15 colon and with UACC-257 melanoma were 1.24 µM, 2.8 µM and 9.34 µM, respectively. Besides, the TGI with HOP-92 NSCLC, in the experiment on SK-MEL-28 melanoma, with KM12 colon, in the experiment with A549 NSCLC, in the experiment with SK-MEL-5 melanoma and in the experiment with NCI-H23 lung was over 100 µM throughout. The TGI in the experiment with CCRF-CEM leukemia, in the experiment with HCT-15 colon and in the experiment on UACC-257 melanoma was over 100 µM in each case.

For `[O-][N+]1(CC[N+]2([O-])CCCCC2)CCCCC1`, the TGI in the experiment on HOP-92 NSCLC, in the experiment on SK-MEL-28 melanoma, in the experiment on KM12 colon, in the experiment on A549 NSCLC, in the experiment on SK-MEL-5 melanoma and with NCI-H23 lung was over 100 µM throughout. Also, the TGI in the experiment with CCRF-CEM leukemia, with SK-MEL-2 melanoma and in the experiment on HCT-15 colon was over 100 µM each time.

Values taken from PubChem BioAssay (NCI).
